Legend:
[1] = test system: Staphylococcus aureus (MRSA, ATCC 6538); assay: Real-time microcalorimetric measurement of bacterial metabolic activity (heat flow, Calscreener); format: cell-based
Procedure: Staphylococcus aureus (MRSA, ATCC 6538) was grown overnight in TSB (tryptic soy broth) medium, before being diluted 1×10^6 fold in fresh TSB. Subsequently […] aliquots of diluted bacteria suspensions were respectively supplemented with 1 and 2 mg/L of chlorhexidine (digluconate solution, 20% in H2O, Merck). […] The aqueous solution of chlorhexidine and the ethanol-based solution of triafluocyl were kept refrigerated. Chlorhexidine, triafluocyl or both, and ethanol as a vehicle were added to the bacterial suspensions to obtain the given concentrations followed by a brief vortexing. Bacterial aliquots were then distributed in the dedicated non-activated inserts of a 48-well plate and grown for 24 h or more under static conditions at 37 C using Calscreener technology to measure bacterial growth and metabolic activity in Real-Time as described in https://cordis.europa.eu/project/id/784514.
Staphylococcus aureus (MRSA, ATCC 6538) was grown overnight in TSB (tryptic soy broth) medium, before being diluted 1×10^6 fold in fresh TSB. Subsequently […] aliquots of diluted bacteria suspensions were respectively supplemented with 0.25, 0.5 and 1 μg/mL of chlorhexidine (digluconate solution, 20% in H2O, Merck) or alexidine dihydrochloride (stock solution of 3 mg/mL in ethanol, Merck).
The aqueous solution of chlorhexidine and the ethanol-based solution of alexidine were kept refrigerated. Chlorhexidine, alexidine, and ethanol as a vehicle were added to the bacterial suspensions to obtain the given concentrations followed by a brief vortexing. Bacterial aliquots were then distributed in the dedicated non-activated inserts of a 48-well plate and grown for 24 h or more under static conditions at 37 C using Calscreener technology to measure bacterial growth and metabolic activity in Real-Time as described in https://cordis.europa.eu/project/id/784514.
Staphylococcus aureus (MRSA, ATCC 6538) was grown overnight in TSB (tryptic soy broth) medium, before being diluted 1×10^6 fold in fresh TSB. Subsequently […] aliquots of diluted bacteria suspensions were respectively supplemented with […] of alexidine dihydrochloride (stock solution of 3 mg/mL in ethanol, Merck). […] The ethanol-based solutions of alexidine and fluometacyl were stored at −20° C.
Alexidine alone or with fluometacyl, and ethanol as a vehicle were added to the bacterial suspensions to obtain the given concentrations followed by a brief vortexing. Bacterial aliquots were then distributed in the dedicated non-activated inserts of a 48-well plate and grown for 24 h or more under static conditions at 37 C using Calscreener technology to measure bacterial growth and metabolic activity in Real-Time.

[2] = chlorhexidine base; cited from earlier work

Which “effect on metabolic activity (heat flow)” value ([1]; chlorhexidine 1 mg/L alone) does the source give for `[H]/N=C(\N/C(=N/[H])NCCCCCCNC(=N)NC(=N)Nc1ccc(Cl)cc1)Nc1ccc(Cl)cc1` [Chlorhexidine, chlorhexidine] here?
The value was “strong shift in a metabolic activity”.

And the “effect on metabolic activity (heat flow)” value ([1]; chlorhexidine 1 mg/mL alone (Example 3))?
Its value is “strong shift in a metabolic activity”.

What about the “concentration with full growth inhibition or bactericidal effect” value ([1]; chlorhexidine digluconate alone, tested 1 and 2 mg/L) of the same molecule?
The value was 2 mg/L.

What about the solubility in water [2] of the same molecule?
Its solubility in water is “insoluble in water”.

Source: patent US20250375453A1, “HIGH-EFFICIENCY ANTIMICROBIAL COMPOSITION” (CM4CURE S.A., priority 2023, published 2025)
